Data reported in US20060088545A1, “Use of inhibitors of the protease of the human immunodeficiency virus (hiv) to block cell migration and/or invasion, tissue infiltration and oedema for the therary of diseases associated therewith” (priority 2001, published 2006).

Experiments:
[1] = test system: hepato-carcinoma cells (SK-Hep-1); assay: Cell growth assay of SK-Hep-1 cells; type: cell-based, human; conditions: 10 μM; 4 days
Procedure: FIG. 16. […] Shown is the result of a representative cell growth assay performed on the hepato-carcinoma cells. Human hepato-carcinoma cells (SK-Hep-1; from ATCC) were plated in triplicate (8×10^4 cells/well) in 12-well plates. […] After 4 days of culture, the cells were counted by trypan blue dye staining, as previously described (Ensoli et al., 1990; Ensoli et al., 1994b): For all the in vitro studies HIV-PI as endotoxin-free pure powder (a kind gift of Merck Sharp & Dohme and Roche) were resuspended in distilled water. Assays were repeated at least three times.

[2] = test system: hepato-carcinoma (SK-Hep-1) cells; assay: Invasion assay of SK-Hep-1 cells in response to bFGF; type: cell-based, human; conditions: 0.1, 1 or 10 μM
Procedure: The invasion assays were performed in the Boyden chamber. Polycarbonate filters ([…]; Nucleoprobe, Cabin John, Md.) were coated first with collagen IV and then with Matrigel (Collaborative Biomedical Products) as described previously (Barillari et al., 1999b). […] Human recombinant bFGF (50 ng/ml) was placed in the lower compartment as chemo-attractant. […] Louis, Mo.). Ten random filter fields were counted by light microscopy as described previously (Barillari et al., 1999b).

[3] = test system: primary macrovascular (umbilical vein) endothelial cells (HUVEC); assay: Boyden chamber invasion assay of HUVEC in response to bFGF; type: cell-based, human; conditions: 0.1, 1 or 10 μM; bFGF 50 ng/ml; 6 hours
Procedure: (§1) Both assays were performed on endothelial cells.
(§2) Both assays were performed by the Boyden chamber separated in two compartments by polycarbonate filters with 12 μm pores (Nucleoprobe, Cabin John, Md.), coated with collagen IV (Collaborative Biomedical Products) for migration, or with collagen IV and Matrigel together for invasion, as described previously (Barillari et al., 1999b). […] After 5 hours (migration) or 6 hours (Invasion) of incubation, the non-migrated cells present on the top surface of the filters were mechanically removed, while the migrated cells on the bottom surface were fixed in methanol and stained with toluidine blue (Sigma Chemical Co., St. Louis, Mo.). The cells present in 5-10 microscopic fields of the filters, chosen at random, were counted as described previously (Barillari et al., 1999b).
(§3) The concentrations of HIV-PI used were the same as those present in plasma of treated patients (Deeks et al., 1997).

[4] = test system: endothelial/lung carcinoma hybrid (Ea-hy 926) cells; assay: Invasion assay of Ea-hy 926 cells in response to bFGF; type: cell-based, human; conditions: 1 μM
Procedure: (§4) The assays have been performed essentially as described in key to FIG. 1. No growth factors were added to EA-hy 926 cells since they produce factors which mediates cell growth in autocrine fashion (Edgell et al., 1983, Albini et al., PNAS 1995, Albini et al., Nat Med 1996). […] The assays have been performed essentially as described in legend to FIG. 3. Average and variation range of two independent experiments each performed in duplicate are shown.

[5] = test system: T cell leukaemia (Jurkat) cells; assay: Tumour lesions induced by Jurkat cells in nude mice; type: in vivo; conditions: 20×10^6 cells/site; daily treatment
Procedure: (§5) The treatment with HIV-PI or saline solution continued until sacrifice. The size of the lesions present at the injection site was evaluated daily by caliper measurement. External lesion area was then calculated as the product of the two major lesion diameters. The mean size (cm^2) of the lesions present at the injection site is shown.
(§6) To determine whether HIV-PI could inhibit the growth of malignant solid and lymphoid tumours, nude mice were inoculated with hepato-carcinoma cells (SK-Hep-1), lung carcinoma cells (A549), breast adeno-carcinoma cells (MDA-MB-468), myelo-monocytic leukaemia cells (U937), and T lymhocytic leukaemia cells (Jurkat).

[6] = test system: primary macrovascular (umbilical vein) endothelial cells (HUVEC); assay: Boyden chamber migration assay of HUVEC in response to bFGF; type: cell-based, human; conditions: 0.1, 1 or 10 μM; bFGF 50 ng/ml; 5 hours
Procedure: as §1, §2, §3

[7] = test system: myelo-monocytic leukaemia (U937) cells; assay: Tumour lesions induced by U937 cells in nude mice; type: in vivo; conditions: 5×10^6 cells/site; daily treatment
Procedure: as §5, §6

[8] = test system: myelo-monocytic leukaemia (U937) cells; assay: Invasion assay of U937 cells in response to bFGF; type: cell-based, human; conditions: 1 or 10 μM
Procedure: Shown is the result of a representative invasion assay performed on the myelo-monocytic leukaemia cells U937. […] The invasion assays were performed in the Boyden chamber. Polycarbonate filters (5 μM pores; Nucleoprobe, Cabin John, Md.) were coated first with collagen IV and then with Matrigel (Collaborative Biomedical Products) as described previously (Barillari et al., 1999b). […] Human recombinant bFGF (50 ng/ml) was placed in the lower compartment as chemoattractant. […] Louis, Mo.). Ten random filter fields were counted by light microscopy as described previously (Barillari et al., 1999b). Assays were repeated two times.

[9] = test system: endothelial/lung carcinoma hybrid (Ea-hy 926) cells; assay: Cell growth assay of Ea-hy 926 cells; type: cell-based, human; conditions: 1 μM; 5 days
Procedure: as §4

[10] = test system: primary macrovascular (umbilical vein) endothelial cells (HUVEC); assay: Proliferation assay of HUVEC, basal or bFGF-induced; type: cell-based, human; conditions: for basal or bFGF-induced proliferation (number of cells): 0.1, 1 or 10 μM, 5 days, bFGF 10 ng/ml
Procedure: Human endothelial cells from the umbilical vein (HUVEC, Blo-Whittaker, Verviers, Belgium) were plated in triplicate (1.5×10^4 cells/well) in plates of 12 wells previously covered with gelatine. The next day the cells were incubated for 4 hours in a medium without serum and cultivated in RPMI 1640 medium (Life Technologies, Eragny, France) with the addition of 10% of foetal bovine serum (FBS) together with bFGF in PBS buffer (10 ng/ml) or PBS buffer alone.
as §3

[11] = test system: lesions induced by bFGF and VEGF combined; assay: Angiogenic KS-like lesions induced by bFGF and VEGF combined in nude mice; type: in vivo; conditions: bFGF 0.1 μg + VEGF 1 μg
Procedure: Since VEGF co-operates synergistically with bFGF in inducing angiogenesis and KS-lesion formation, mice (6 animals/group) were also inoculated with sub-optimal amounts of bFGF (0.1 μg) and VEGF (1 μg) combined, as previously performed to observe their synergistic effect (Samaniego et al 1998), and treated with HIV-PI as indicated above.
At sacrifice the sites of injection were examined for the presence of macroscopic angioproliferative lesions and tissue stained by H & E and analysed microscopically. Here are listed the number (No.) of mice that developed lesions with respect to the number (No.) of mice inoculated, and the percentage (%) of mice that developed lesions.

Structure (SMILES) | proliferation [1] | invasive capacity in response to bFGF [2] | invasion induced by bFGF [3] | invasion in response to bFGF [4] | development of tumour lesions (lesion size) [5] | migration induced by bFGF [6] | development of tumour lesions (lesion size) [7] | invasive capacity in response to bFGF [8] | proliferation [9] | survival of macrovascular endothelial cells [10] | basal or bFGF-induced proliferation (number of cells) [10] | No. of mice developing lesions/No. of mice [11] | mice developing lesions (%) [11]
CC(C)(C)NC(=O)[C@@H]1C[C@@H]2CCCC[C@@H]2CN1C[C@@H](O)[C@H](Cc1ccccc1)NC(=O)[C@H](CC(N)=O)NC(=O)c1ccc2ccccc2n1 [Saquinavir, saquinavir] | do not interfere | inhibit | block | inhibit | inhibit | block | inhibit | inhibit | do not interfere | no effect | no effect | 1/6 | 17%
CC(C)(C)NC(=O)[C@@H]1CN(Cc2cccnc2)CCN1C[C@@H](O)C[C@@H](Cc1ccccc1)C(=O)N[C@H]1c2ccccc2C[C@H]1O [Indinavir, indinavir] | do not interfere | inhibit | block | inhibit | inhibit | block | inhibit | inhibit | do not interfere | no effect | no effect | 2/6 | 33%
